Source: the supplement of paper PMC8671470

How the values were obtained:
Conditions in all cases: 72 h
HL-60 [1] = system: HL-60
Procedure, shortened: (§1)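 Fifteen myeloid leukaemia lines in RPMI 1640 were treated for 72 h at 37 °C and 5% CO2 with five tenfold doses from 1 to 10,000 nM, in duplicate. ATP luminescence was normalised to vehicle and to a positive control at 10 µM, then fitted with a four-parameter log-logistic model. The IC50 came from these fits.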

KCL-22 [2] = system: KCL-22
Procedure, shortened: as §1

KG-1 [3] = system: KG-1
Procedure, shortened: as §1

ML-2 [4] = system: ML-2
Procedure, shortened: as §1

NOMO-1 [5] = system: NOMO-1
Procedure, shortened: as §1

HL-60 [6] = assay: cell viability (% survival relative to DMSO control); higher = less cytotoxic
Procedure, shortened: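 HL-60 cells grown in RPMI 1640 with 10% FBS were rescreened against the full library in 384-well plates, in duplicate, at five tenfold concentrations from 1 to 10,000 nM, alongside DMSO or 100 nM of one of three metabolic inhibitors for 72 h at 37 °C, 5% CO2. Reference wells contained DMSO or 10 μM proteasome inhibitor. Viability was read with CellTiter-Glo and normalised to these reference wells, and where reported, area under the curve was taken from four-parameter log-logistic fits in drc and PharmacoGx.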

BV-173 = assay: cell viability (% survival relative to DMSO control, bortezomib = 0%); higher = less cytotoxic
Procedure, shortened: (§2)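 Percent survival is reported as the mean of duplicate wells. Cells from 10 AML and 5 CML lines were plated in 384-well plates containing compounds at 1, 10, 100, 1000 or 10000 nM and kept for 72 h at 37 °C in 5% CO2. Readout used CellTiter-Glo luminescence, scaled so that vehicle equals 100% and a 10 µM positive control equals 0%.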

HEL = assay: as above
Procedure, shortened: as §2

HL-60 [7] = assay: as above
Procedure, shortened: as §2

K-562 = assay: as above
Procedure, shortened: as §2

KCL-22 [8] = assay: as above
Procedure, shortened: as §2

KG-1 [9] = assay: as above
Procedure, shortened: as §2

KU-812 = assay: as above
Procedure, shortened: as §2

LAMA-84 = assay: as above
Procedure, shortened: as §2

ML-2 [10] = assay: as above
Procedure, shortened: as §2

MOLM-13 = assay: as above
Procedure, shortened: as §2

MV4-11 = assay: as above
Procedure, shortened: as §2

Mono-Mac-6 = assay: as above
Procedure, shortened: as §2

NOMO-1 [11] = assay: as above
Procedure, shortened: as §2

SHI-1 = assay: as above
Procedure, shortened: as §2

THP-1 = assay: as above
Procedure, shortened: as §2

CCCc1nc(C)c2c(=O)nc(-c3cc(S(=O)(=O)N4CCN(CC)CC4)ccc3OCC)[nH]n12 [Vardenafil]
Conditions	IC50 (cell viability) [µM]
HL-60 [1]	> 10
KCL-22 [2]	> 10
KG-1 [3]	> 10
ML-2 [4]	> 10
NOMO-1 [5]	> 10

cell viability [%], HL-60 [6]
Conditions	0.001 µM	0.01 µM	0.1 µM	1 µM	10 µM
co-treatment: AZD3965 100 nM	98.1	100	96.8	108	100
co-treatment: DMSO vehicle	98.07	99.7	84.9	98.5	103
co-treatment: GSK2194069 100 nM	97.9	98.3	88.3	108.1	92.4
co-treatment: pictilisib 100 nM	101	104	93	104	107

cell viability [%]
Conditions	1 nM	10 nM	100 nM	1000 nM	10000 nM
BV-173	98.3	80.3	101	108	82.8
HEL	91.9	111	94.4	102	93.7
HL-60 [7]	107	115	89.2	112	102
K-562	109	107	93.8	90.8	92.6
KCL-22 [8]	105	110	98.3	95.8	94.6
KG-1 [9]	95.4	95.9	92.8	110	107
KU-812	95.4	106	92	102	102
LAMA-84	92.6	95.2	101	92.2	97.8
ML-2 [10]	98.8	96.3	88	97.4	110
MOLM-13	107	123	71.2	91.2	94.5
MV4-11	97.9	87.5	85.2	97.7	93.3
Mono-Mac-6	102	83	106	95.1	102
NOMO-1 [11]	94.4	84.3	96.1	101	93.1
SHI-1	102	115	89.8	99.7	101
THP-1	93.8	85	107	108	96.5

CO[C@H]1C[C@@H]2CC[C@@H](C)[C@@](O)(O2)C(=O)C(=O)N2CCCC[C@H]2C(=O)O[C@H]([C@H](C)C[C@@H]2CC[C@@H](OC(=O)C(C)(CO)CO)[C@H](OC)C2)CC(=O)[C@H](C)/C=C(\C)[C@@H](O)[C@@H](OC)C(=O)[C@H](C)C[C@H](C)/C=C/C=C/C=C/1C [Temsirolimus]
Conditions	IC50 (cell viability) [µM]
HL-60 [1]	0.148
KCL-22 [2]	0.0133
KG-1 [3]	0.00205
ML-2 [4]	2.59
NOMO-1 [5]	4.42

cell viability [%], HL-60 [6]
Conditions	0.001 µM	0.01 µM	0.1 µM	1 µM	10 µM
co-treatment: AZD3965 100 nM	99.9	97.186	101	92.3	86.7
co-treatment: DMSO vehicle	101	96.3	97.65	90.3	100
co-treatment: GSK2194069 100 nM	92.3	87.52	103.1	83.261	96.5
co-treatment: pictilisib 100 nM	94.1	81	99.1	81.02	91.4

cell viability [%]
Conditions	1 nM	10 nM	100 nM	1000 nM	10000 nM
BV-173	96.5	54.8	57.6	45.7	39.5
HEL	101	85.3	77.3	65.2	46.3
HL-60 [7]	101	96.8	90	73.4	73
K-562	94.8	58.4	47.2	44.7	33.5
KCL-22 [8]	95.8	58.5	47.8	32.5	23.6
KG-1 [9]	80.8	47.2	46.5	39.2	33.6
KU-812	71.8	42.9	44.7	38.8	36.1
LAMA-84	90.6	63.2	65	49.2	40.9
ML-2 [10]	84.3	71.5	70.4	60.3	38.2
MOLM-13	78.5	41.6	40.9	29.8	30.6
MV4-11	89.6	63.6	62.3	53.2	37.3
Mono-Mac-6	99.2	49.4	48	35.1	38
NOMO-1 [11]	79.9	67.5	76.8	60.9	52.9
SHI-1	93.3	71.2	80.4	58.8	59.3
THP-1	91.6	75	76.8	57.3	55.6

C=CC(=O)c1ccc(O)cc1 [4-Acryloylphenol]
Conditions	IC50 (cell viability) [µM]
HL-60 [1]	> 10
KCL-22 [2]	6.68
KG-1 [3]	> 10
ML-2 [4]	9.62
NOMO-1 [5]	3.44

cell viability [%], HL-60 [6]
Conditions	0.001 µM	0.01 µM	0.1 µM	1 µM	10 µM
co-treatment: AZD3965 100 nM	104	99.2	88.2	99.4	63.5
co-treatment: DMSO vehicle	102	101.3	100	102	92.8
co-treatment: GSK2194069 100 nM	104	110	96.21	105	87.5
co-treatment: pictilisib 100 nM	108	103	104	108	58.5

cell viability [%]
Conditions	1 nM	10 nM	100 nM	1000 nM	10000 nM
BV-173	82.2	86.6	104	93	-1.1
HEL	80	90.5	94.7	115	26.6
HL-60 [7]	90	80.9	97.5	105	94.6
K-562	86.2	85.5	101	114	66.7
KCL-22 [8]	86.1	89.5	102	124	28.2
KG-1 [9]	83.7	92.7	99.8	114	86.2
KU-812	82.9	97.5	96.4	97.7	36.1
LAMA-84	86.7	91.9	99.9	105	56.7
ML-2 [10]	90	90.7	105	125	46.9
MOLM-13	81.7	79.4	83.1	124	78.7
MV4-11	91	89.9	94.3	137	-1.55
Mono-Mac-6	86.3	99.1	111	103	54.6
NOMO-1 [11]	88	92.6	107	102	2.21
SHI-1	99.7	92.7	102	114	103
THP-1	89.8	88.1	102	99.4	72.8

N[C@@H](CC(=O)N1CCn2c(nnc2C(F)(F)F)C1)Cc1cc(F)c(F)cc1F [Sitagliptin]
Conditions	IC50 (cell viability) [µM]
HL-60 [1]	> 10
KCL-22 [2]	> 10
KG-1 [3]	> 10
ML-2 [4]	> 10
NOMO-1 [5]	> 10

cell viability [%], HL-60 [6]
Conditions	0.001 µM	0.01 µM	0.1 µM	1 µM	10 µM
co-treatment: AZD3965 100 nM	103	108	103	103	109
co-treatment: DMSO vehicle	97.61	102	100	101	101
co-treatment: GSK2194069 100 nM	97.9	104	99.4	107	97.9
co-treatment: pictilisib 100 nM	82.9	104	99.5	114	94.2

cell viability [%]
Conditions	1 nM	10 nM	100 nM	1000 nM	10000 nM
BV-173	89.5	103	99.9	93.4	102
HEL	90.7	95.3	111	95.4	103
HL-60 [7]	101	95.5	97.1	91.3	95.2
K-562	93.8	96.9	103	99.7	113
KCL-22 [8]	94	114	106	94.4	92.8
KG-1 [9]	90.9	104	108	95.2	103
KU-812	94.6	98.9	91.9	95.5	102
LAMA-84	93.1	99.2	94	102	93.8
ML-2 [10]	90	102	99.3	97.4	97.9
MOLM-13	95.5	110	92.5	84.3	95.4
MV4-11	89.2	102	99.3	92.2	101
Mono-Mac-6	92.5	83.8	96.1	85.6	100
NOMO-1 [11]	99.8	96.9	91.3	101	100
SHI-1	95.2	104	105	96.8	97.4
THP-1	97.8	99.7	106	99	97.6

O=c1cc(N2CCOCC2)oc2c(-c3ccccc3)cccc12
Conditions	IC50 (cell viability) [µM]
HL-60 [1]	0.334
KCL-22 [2]	9.05
KG-1 [3]	4.97
ML-2 [4]	0.0328
NOMO-1 [5]	0.0252

cell viability [%], HL-60 [6]
Conditions	0.001 µM	0.01 µM	0.1 µM	1 µM	10 µM
co-treatment: AZD3965 100 nM	99.5	101	103.3	100	75.2
co-treatment: DMSO vehicle	99.2	100	102	91.6	86
co-treatment: GSK2194069 100 nM	107	101.4	105	99.4	84
co-treatment: pictilisib 100 nM	110	104	103	92.2	79.6

cell viability [%]
Conditions	1 nM	10 nM	100 nM	1000 nM	10000 nM
BV-173	176	95.7	1.14	95.6	48
HEL	133	92.1	23.1	98.9	78.1
HL-60 [7]	130	118	103	0.801	0.404
K-562	135	104	90.3	6.74	0.516
KCL-22 [8]	123	104	90.5	98.9	45.1
KG-1 [9]	114	106	82.8	90.8	28.4
KU-812	115	100	56.3	95.1	54.8
LAMA-84	127	108	46.1	84.2	65.3
ML-2 [10]	143	103	17.6	89.4	54.9
MOLM-13	125	119	77.5	1.16	0.26
MV4-11	131	120	0.364	-0.297	-0.0959
Mono-Mac-6	116	103	95.3	83.2	40.7
NOMO-1 [11]	122	96	9.05	90.4	57.1
SHI-1	123	102	106	92.8	30.7
THP-1	116	94.1	99.8	95.8	59.3
